Where two headings read alike, the source gives them in different places.
What was measured:
[1] = system: HIV1 strain NL4-3; assay type: cell-based; conditions: for HIV1 Norm MEAN: normalized mean of HIV1 replication readout
[2] = system: F. novicida (strain U112); assay type: cell-based
[3] = system: influenza A H1N1 virus; conditions: 48 hr post-treatment, A549
[4] = system: EBV; conditions: normalized mean of EBV replication readout
[5] = system: HCV replicon; assay type: cell-based; conditions: normalized mean of HCV replicon readout

Substance	HIV1 Norm MEAN [1]	Francisella novicida Norm AUC [2]	Neuraminidase activity normalized to vehicle ([3]; 200 µM peptide)	Neuraminidase activity normalized to vehicle ([3]; 0,823 µM peptide)	Neuraminidase activity normalized to vehicle ([3]; 22,2 µM peptide)	Neuraminidase activity normalized to vehicle ([3]; 2,4691 µM peptide)	Neuraminidase activity normalized to vehicle ([3]; 7,4074 µM peptide)	Neuraminidase activity normalized to vehicle ([3]; 66,6667 µM peptide)	EBV Norm MEAN [4]	HCV Norm MEAN [5]	HIV1 Norm MEAN ([1]; peptide screen)	EBV Norm MEAN ([4]; peptide screen)	HCV Norm MEAN ([5]; peptide screen)	activity in HIV1 screen (in words) ([1]; 20 µM peptide, HeLa P4 cells, β-galactosidase)
FVKSNWGLF [CPEP101]	0.9706	1.6479	0,7463	1,0136	0,9003	0,9061	0,9057	0,8948	1.466	0.5497	–	–	–	–
PKKKRKV [CPEP56]	0.9705	1.16	0,9628	1,0162	0,9231	0,8416	0,8936	0,9527	0.9787	0.1426	–	–	–	–
ARARALARGAGPANSV [CPEP47]	–	0.949	1,0179	1,0745	1,1923	1,0399	1,1089	1,0424	–	–	2.79	1.295	1.1445	–
CPEP64: peptide of the viral peptide library; sequence page not shown (CCFHCQVCFIT)	8.487	0.8687	0,0708	0,8369	0,1905	0,9654	0,5226	0,0909	0.8807	1.72	–	–	–	–
GGKWSKLS [CPEP134]	1.139	1.142	0,426	0,9416	0,8116	0,8887	0,9196	0,7036	0.3842	0.2388	–	–	–	–
RRKAK [CPEP70]	3.517	0.442	1,0392	0,9822	0,9863	0,9261	0,9473	1,0254	1.652	0.1385	–	–	–	–
CPEP89: peptide of the viral peptide library; sequence page not shown (YDVLKAACKSVIKT)	–	0.9882	0,097	0,8515	0,6685	0,8767	0,7891	0,2057	–	–	4.725	0.6285	1.184	–
SAIASGIAVS [CPEP72]	7.153	1.051	1,0607	1,0538	1,1913	1,1217	1,1419	1,1769	0.8997	1.456	–	–	–	strongly
CPEP98: peptide of the viral peptide library; sequence page not shown (PLPPTKAPPIPPPR)	–	1.1759	1,0266	0,8951	0,9384	0,9959	0,9005	0,9857	–	–	0.2763	0.8005	0.3984	–
RKSASMS [CPEP82]	1.975	1.194	0,8479	0,801	0,7544	0,6968	0,5924	0,9164	1.372	0.267	–	–	–	–
CPEP63: peptide of the viral peptide library; sequence page not shown (KARHKRRNRSSRS)	0.7086	1.1166	0,8323	0,6161	0,9172	1	0,9177	0,9488	1.249	0.5995	–	–	–	–
ACTNCYCKKCCFHCQVC [CPEP100]	–	1.04	1,0893	1,092	1,1329	0,9938	1,0674	1,0274	–	–	0.1546	1.687	0.4928	–
TRVESENKVVILDSFD [CPEP93]	–	0.7068	1,1147	1,1071	1,1929	1,0829	1,1322	1,0883	–	–	10.6718	1.069	0.8288	–
KLVTELAENS [CPEP129]	0.8117	0.9413	0,8014	1,1002	0,8882	1,0838	0,9983	0,7782	1.255	0.8005	–	–	–	–
PPPPY [CPEP132]	1.621	0.9275	0,8244	0,8549	0,9192	0,87	0,8306	1,0078	1.203	0.2215	–	–	–	–

Reference: PMC10835127, “Viruses traverse the human proteome through peptide interfaces that can be biomimetically leveraged for drug discovery” (Proceedings of the National Academy of Sciences of the …, 2024)
